Experimental data from ChEMBL document CHEMBL1909046, “DrugMatrix in vitro pharmacology data”.

How the values were obtained:
[1] = DRUGMATRIX: GABAA, Chloride Channel, TBOB radioligand binding (ligand: [3H] TBOB); assay type: cell membranes, Rattus norvegicus, Wistar, Cerebral cortex, Membrane; details: Not Active = under 50% inhibition at 10 µM
[2] = DRUGMATRIX: Glutamate, NMDA, Agonism radioligand binding (ligand: [3H] CGP-39653); assay type: cell membranes, Rattus norvegicus, Wistar, Cerebral cortex, Membrane; details: Not Active = under 50% inhibition at 10 µM
[3] = biological target: T1, Nitric oxide synthase, inducible (Mus musculus, UniProt P29477); parameters: species or system Escherichia coli;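 note: inhibition of iNOS enzyme activity measured with L-arginine as substrate; in other assays of this panel Not Active means under 50% inhibition at 10 µM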
T1 sequence (P29477 whole entry): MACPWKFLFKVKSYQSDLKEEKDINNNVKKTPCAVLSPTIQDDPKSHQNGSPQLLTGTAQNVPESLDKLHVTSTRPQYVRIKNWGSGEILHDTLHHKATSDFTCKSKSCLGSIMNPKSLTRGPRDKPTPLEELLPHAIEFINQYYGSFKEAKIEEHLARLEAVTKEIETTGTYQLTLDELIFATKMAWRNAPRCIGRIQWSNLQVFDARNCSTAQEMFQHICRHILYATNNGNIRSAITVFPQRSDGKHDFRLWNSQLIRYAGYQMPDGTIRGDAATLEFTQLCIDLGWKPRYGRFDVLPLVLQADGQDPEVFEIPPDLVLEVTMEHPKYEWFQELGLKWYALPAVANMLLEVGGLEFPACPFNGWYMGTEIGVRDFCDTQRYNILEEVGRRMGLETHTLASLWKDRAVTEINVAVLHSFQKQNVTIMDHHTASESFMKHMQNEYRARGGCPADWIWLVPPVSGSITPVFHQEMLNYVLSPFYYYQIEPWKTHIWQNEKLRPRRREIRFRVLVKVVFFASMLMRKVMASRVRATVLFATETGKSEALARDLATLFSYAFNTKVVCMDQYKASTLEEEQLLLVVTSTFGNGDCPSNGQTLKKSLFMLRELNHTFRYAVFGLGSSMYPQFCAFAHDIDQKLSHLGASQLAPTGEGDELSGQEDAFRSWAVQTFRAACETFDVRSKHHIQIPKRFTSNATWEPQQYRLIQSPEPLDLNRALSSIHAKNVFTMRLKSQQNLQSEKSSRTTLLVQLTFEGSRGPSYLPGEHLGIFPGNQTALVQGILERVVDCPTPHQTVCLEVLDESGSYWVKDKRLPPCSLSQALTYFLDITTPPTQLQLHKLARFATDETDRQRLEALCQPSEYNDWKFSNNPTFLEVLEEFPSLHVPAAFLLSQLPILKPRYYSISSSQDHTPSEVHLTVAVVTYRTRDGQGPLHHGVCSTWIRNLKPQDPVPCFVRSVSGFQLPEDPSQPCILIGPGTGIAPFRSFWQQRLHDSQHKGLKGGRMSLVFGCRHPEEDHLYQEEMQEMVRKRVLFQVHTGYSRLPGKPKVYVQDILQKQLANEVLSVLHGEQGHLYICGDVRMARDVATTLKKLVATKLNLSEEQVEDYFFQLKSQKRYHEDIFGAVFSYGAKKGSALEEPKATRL

[4] = biological target: Sodium-dependent dopamine transporter (Homo sapiens, UniProt Q01959); test: DRUGMATRIX: Dopamine Transporter radioligand binding (ligand: [125I] RTI-55); assay type: cell membranes, CHO-K1, Membrane; details: cho-k1; Not Active = under 50% inhibition at 10 µM
Histamine H2 receptor = Histamine H2 receptor (Homo sapiens, UniProt P25021); assay type: cell membranes, CHO-K1, Membrane; details: cho-k1; note: in other assays of this panel Not Active means under 50% inhibition at 10 µM
[5] = biological target: T2, Alpha-1D adrenergic receptor (Homo sapiens, UniProt P25100); assay type: cell membranes, HEK293, Membrane; details: hek293; note: in other assays of this panel Not Active means under 50% inhibition at 10 µM
T2 sequence (P25100 whole entry): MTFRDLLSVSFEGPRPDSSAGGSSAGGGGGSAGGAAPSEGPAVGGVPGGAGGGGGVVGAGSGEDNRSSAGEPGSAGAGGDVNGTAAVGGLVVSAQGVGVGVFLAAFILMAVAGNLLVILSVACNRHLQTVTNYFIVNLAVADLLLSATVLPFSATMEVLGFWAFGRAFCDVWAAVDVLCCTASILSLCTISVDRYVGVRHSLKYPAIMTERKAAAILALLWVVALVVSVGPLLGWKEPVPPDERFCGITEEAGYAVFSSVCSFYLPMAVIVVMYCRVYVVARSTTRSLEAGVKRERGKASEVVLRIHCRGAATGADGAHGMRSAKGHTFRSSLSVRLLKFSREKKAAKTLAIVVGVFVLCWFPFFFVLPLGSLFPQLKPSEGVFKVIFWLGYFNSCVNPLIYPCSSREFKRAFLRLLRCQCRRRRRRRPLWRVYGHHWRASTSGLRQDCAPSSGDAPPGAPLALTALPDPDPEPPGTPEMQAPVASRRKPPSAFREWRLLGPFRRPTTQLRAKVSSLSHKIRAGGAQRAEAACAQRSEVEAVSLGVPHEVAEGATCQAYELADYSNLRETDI

Sequence of Sodium-dependent dopamine transporter (Q01959 whole entry): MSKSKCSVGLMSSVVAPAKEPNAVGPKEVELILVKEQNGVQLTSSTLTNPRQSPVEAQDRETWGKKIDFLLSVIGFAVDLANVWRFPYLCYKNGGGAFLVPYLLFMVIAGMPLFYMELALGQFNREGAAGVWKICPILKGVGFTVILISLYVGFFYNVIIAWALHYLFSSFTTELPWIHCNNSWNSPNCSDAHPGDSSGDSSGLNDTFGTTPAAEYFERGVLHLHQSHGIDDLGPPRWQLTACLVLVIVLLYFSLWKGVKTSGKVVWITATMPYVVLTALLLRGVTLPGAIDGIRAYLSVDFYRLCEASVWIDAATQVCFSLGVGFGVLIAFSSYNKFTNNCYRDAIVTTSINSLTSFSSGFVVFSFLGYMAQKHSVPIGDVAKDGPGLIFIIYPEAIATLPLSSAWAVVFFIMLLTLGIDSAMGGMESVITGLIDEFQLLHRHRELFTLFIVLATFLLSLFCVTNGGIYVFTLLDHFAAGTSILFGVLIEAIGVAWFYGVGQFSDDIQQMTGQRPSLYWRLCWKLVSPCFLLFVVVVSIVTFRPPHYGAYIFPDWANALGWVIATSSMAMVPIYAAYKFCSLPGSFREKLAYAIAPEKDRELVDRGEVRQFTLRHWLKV
Sequence of Histamine H2 receptor (P25021 whole entry): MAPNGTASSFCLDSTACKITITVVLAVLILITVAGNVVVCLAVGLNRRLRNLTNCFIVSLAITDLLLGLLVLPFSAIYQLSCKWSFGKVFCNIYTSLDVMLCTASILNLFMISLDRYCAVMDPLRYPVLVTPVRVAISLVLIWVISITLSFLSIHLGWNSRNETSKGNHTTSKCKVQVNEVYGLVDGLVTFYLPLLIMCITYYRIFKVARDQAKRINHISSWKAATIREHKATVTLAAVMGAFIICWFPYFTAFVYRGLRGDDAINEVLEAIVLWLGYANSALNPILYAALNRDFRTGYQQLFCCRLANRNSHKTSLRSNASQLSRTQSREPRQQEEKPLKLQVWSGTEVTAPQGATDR

CCN1C[C@]2(COC)[C@H](O)C[C@H](OC)[C@@]34[C@@H]5C[C@@]6(O)[C@H](OC(=O)c7ccccc7)[C@@H]5[C@@](OC(C)=O)([C@@H]([C@H](OC)[C@H]23)[C@@H]14)[C@@H](O)[C@@H]6OC [ACONITINE]
Not Active: IC50 [1] | Ki [1] | IC50 [2] | Ki [2] | IC50 [3] | IC50 [4] | IC50 (Histamine H2 receptor) | IC50 [5]

Oc1ccccc1 [PHENOL]
Not Active: IC50 [1] | Ki [1] | IC50 [2] | Ki [2] | IC50 [3] | IC50 [4] | IC50 (Histamine H2 receptor) | IC50 [5]

Nc1nc(F)nc2c1ncn2[C@@H]1O[C@H](CO)[C@@H](O)[C@@H]1O [FLUDARABINE]
Not Active: IC50 [1] | Ki [1] | IC50 [2] | Ki [2] | IC50 [3] | IC50 [4] | IC50 (Histamine H2 receptor) | IC50 [5]

O=C1CN(/N=C/c2ccc([N+](=O)[O-])o2)C(=O)N1 [NITROFURANTOIN]
Not Active: IC50 [1] | Ki [1] | IC50 [2] | Ki [2] | IC50 [3] | IC50 [4] | IC50 (Histamine H2 receptor) | IC50 [5]

CC12CCC(CC1=O)C2(C)C (stereo not given) [CAMPHOR]
Not Active: IC50 [1] | Ki [1] | IC50 [2] | Ki [2] | IC50 [3] | IC50 [4] | IC50 (Histamine H2 receptor) | IC50 [5]

Nc1nc(N)c2nc(CNc3ccc(C(=O)N[C@@H](CCC(=O)O)C(=O)O)cc3)cnc2n1 [AMINOPTERIN]
Not Active: IC50 [1] | Ki [1] | IC50 [2] | Ki [2] | IC50 [3] | IC50 [4] | IC50 (Histamine H2 receptor) | IC50 [5]

Cc1c(N)nc([C@H](CC(N)=O)NC[C@H](N)C(N)=O)nc1C(=O)N[C@H](C(=O)N[C@H](C)[C@@H](O)[C@H](C)C(=O)N[C@H](C(=O)NCCc1nc(-c2nc(C(=O)NCCC[S+](C)C)cs2)cs1)[C@@H](C)O)[C@@H](O[C@@H]1O[C@@H](CO)[C@@H](O)[C@H](O)[C@@H]1O[C@H]1O[C@H](CO)[C@@H](O)[C@H](OC(N)=O)[C@@H]1O)c1c[nH]cn1.[Br-] [BLEOMYCIN A2]
Not Active: IC50 [1] | Ki [1] | IC50 [2] | Ki [2] | IC50 [3] | IC50 [4] | IC50 (Histamine H2 receptor) | IC50 [5]

OC[C@H]1O[C@@H]2O[C@H]3[C@H](O)[C@@H](O)[C@@H](O[C@H]4[C@H](O)[C@@H](O)[C@@H](O[C@H]5[C@H](O)[C@@H](O)[C@@H](O[C@H]6[C@H](O)[C@@H](O)[C@@H](O[C@H]7[C@H](O)[C@@H](O)[C@@H](O[C@H]1[C@H](O)[C@H]2O)O[C@@H]7CO)O[C@@H]6CO)O[C@@H]5CO)O[C@@H]4CO)O[C@@H]3CO [ALFADEX]
Not Active: IC50 [1] | Ki [1] | IC50 [2] | Ki [2] | IC50 [3] | IC50 [4] | IC50 (Histamine H2 receptor) | IC50 [5]

O=C(O)CNCP(=O)(O)O [GLYPHOSATE]
Not Active: IC50 [1] | Ki [1] | IC50 [2] | Ki [2] | IC50 [3] | IC50 [4] | IC50 (Histamine H2 receptor) | IC50 [5]

O=C(Nc1ccc(Cl)c(Cl)c1)c1cc(Cl)cc(Cl)c1O [3,3',4',5-TETRACHLOROSALICYLANILIDE]
Not Active: IC50 [1] | Ki [1] | IC50 [2] | Ki [2] | IC50 [3] | IC50 [4] | IC50 (Histamine H2 receptor) | IC50 [5]

COC(=O)Nc1nc2ccc(Sc3ccccc3)cc2[nH]1 [FENBENDAZOLE]
Not Active: IC50 [1] | Ki [1] | IC50 [2] | Ki [2] | IC50 [3] | IC50 [4] | IC50 (Histamine H2 receptor) | IC50 [5]

Nc1ccc(C(=O)O)c(O)c1 [AMINOSALICYLIC ACID]
Not Active: IC50 [1] | Ki [1] | IC50 [2] | Ki [2] | IC50 [3] | IC50 [4] | IC50 (Histamine H2 receptor) | IC50 [5]

COC(=O)C[C@](O)(CCC(C)(C)O)C(=O)O[C@@H]1C(OC)=C[C@]23CCCN2CCc2cc4c(cc2[C@H]13)OCO4 [HARRINGTONINE]
Not Active: IC50 [1] | Ki [1] | IC50 [2] | Ki [2] | IC50 [3] | IC50 [4] | IC50 (Histamine H2 receptor) | IC50 [5]

COc1cc(NC(C)CCCN)c2ncccc2c1 (stereo not given) [PRIMAQUINE]
Not Active: IC50 [1] | Ki [1] | IC50 [2] | Ki [2] | IC50 [3] | IC50 [4] | IC50 (Histamine H2 receptor) | IC50 [5]

OC[C@H]1O[C@@H]2O[C@H]3[C@H](O)[C@@H](O)[C@@H](O[C@H]4[C@H](O)[C@@H](O)[C@@H](O[C@H]5[C@H](O)[C@@H](O)[C@@H](O[C@H]6[C@H](O)[C@@H](O)[C@@H](O[C@H]7[C@H](O)[C@@H](O)[C@@H](O[C@H]8[C@H](O)[C@@H](O)[C@@H](O[C@H]1[C@H](O)[C@H]2O)O[C@@H]8CO)O[C@@H]7CO)O[C@@H]6CO)O[C@@H]5CO)O[C@@H]4CO)O[C@@H]3CO [BETADEX]
Not Active: IC50 [1] | Ki [1] | IC50 [2] | Ki [2] | IC50 [3] | IC50 [4] | IC50 (Histamine H2 receptor) | IC50 [5]
